Patent US6599754B2, “Biphasic reaction vessel and methods of use” (University of Rochester, priority 2000, dated 2003)

Key:
[1] = Cellulose membrane permeability and partitioning between methylene chloride and water, analysed by LC/MS; type: physicochemical; conditions: for transport across cellulose membrane from organic to aqueous layer: LC/MS vial covered with cellulose membrane, methylene chloride / water; for solvent preference from relative LC/MS intensities of the two layers: methylene chloride in LC/MS vial, cellulose membrane, immersed in deionized water for twenty-four hours
Experimental: One of the key components to this system is the physical separation between the organic chemistry and the biomolecular receptor. As a simple test, starting material was dissolved in methylene chloride at reaction concentration in an LC/MS vial, the vial covered with a cellulose membrane and immersed in glass-distilled, deionized water for twenty-four hours (FIGS. 10A-B). The experiment was analyzed by LC/MS.
Furthermore, enough of the compound is present to detect by LC/MS without having to concentrate the sample.

trypsin = assay: Dynamic library selection experiment against trypsin in the biphasic vessel (LC-MS of extracted ions); conditions: 121 compound library, trypsin 43 μM and 257 μM vs trypsin free control, 18 hours incubation; not verified by binding or inhibition constant
Experimental: Selection experiments: 1,4-diacetoxycyclopent-2-ene, methoxyphenylacetic acid, hydrocinnamic acid, isovaleric acid, 4-pentynoic acid, cyclopentane carboxylic acid, cis-pinonic acid, tetrahydro-2-furoic acid, 2 -phenylpropionic acid, 2-cyclopentene-1-acetic acid, (−)-methoxyacetic acid and triethyl phosphite were weighed in 4 mL vials in the open atmosphere. Palladium tetrakistriphenylphosphine was added to the vial containing triethylphosphite under a nitrogen atmosphere inside a glove box. The reagents were diluted with freshly distilled methylene chloride under the nitrogen atmosphere. Stock solutions of 1,4 -diacetoxycyclopent-2-ene (2 M), methoxyphenylacetic acid (1.8 M), hydrocinnamic acid (1.8 M), isovaleric acid (1.8 M), 4-pentynoic acid (1.8 M), cyclopentane carboxylic acid (1.8 M), cis-pinonic acid (1.8 M), tetrahydro-2-furoic acid (1.8 M), 2-phenylpropionic acid (1.8 M), 2-cyclopentene-1-acetic acid (1.8 M), (−)-methoxyacetic acid (1.8 M) and palladium tetrakistriphenylphosphine (90 mM) with triethyl phosphite (360 mM) were prepared. An aliquot (611 μL) was removed from each of the ten acid stock solutions, added to a pear shaped flask, and evaporated to dryness. […]
Organic and aqueous samples were analyzed by electrospray LC-MS in positive ionization mode using an acetonitrile: water 1% trifluoroacetic acid gradient elution (30% CH3CN—90%). […]

Structure (SMILES) | transport across cellulose membrane from organic to aqueous layer [1] | solvent preference from relative LC/MS intensities of the two layers [1] | correlation of amount of compound (ion intensity) with presence of trypsin (trypsin)
CC(=O)OC1C=CC(OC(C)=O)C1 (stereo not drawn) [1,4-diacetoxycyclopent-2-ene] | sufficient ability to undergo membrane transport | organic preference | –
COC(C(=O)O)c1ccccc1 (stereo not drawn) [methoxyphenylacetic acid] | sufficient ability to undergo membrane transport | aqueous preference | –
COC(C(=O)OC1C=CC(OC(C)=O)C1)c1ccccc1 (stereo not drawn) [1-acetoxy-4-(methoxyphenylacetoxy)cyclopent-2-ene] | present at thirteen minutes in the aqueous layer | – | –
CC(=O)OC1C=CC(OC(=O)CC2C=CCC2)C1 (stereo not drawn) [1-acetoxy-4-(2-cyclopentene-1-acetoxy)cyclopent-2-ene] | – | – | strong correlation
